Where two headings read alike, the source gives them in different places.
How the values were obtained:
[1] = biological target: hERG (KV11.1) (Homo sapiens, UniProt Q12809); assay: Automated planar patch-clamp (APC, QPatch II 48), voltage-ladder protocol, CHO cells stably expressing human hERG; details: for effect on Gmax of hERG (in words): APC concentration-response, 1.11 to 30 µM; for hERG channel Efficacy (max reduction in Gmax) Gmin / hERG channel Efficacy (max reduction in Gmax) Gmin, marked *: 1 = no reduction of Gmax; for hERG channel Efficacy (max reduction in Gmax) Gmin: 0 = complete reduction; for hERG channel Efficacy (max reduction in Gmax) Gmin, marked *: * Greatest efficacy achieved with a concentration between 10 and 30 µM (no fit)
Text: To assess the effect of a large set of SCRAs on hERG (see SI Table I and SI Fig. S1 for a list of the 36 included SCRAs and corresponding structures), we used the automated planar patch-clamp (APC) technique on mammalian Chinese hamster ovary (CHO) cells stably expressing human hERG. […] We employed a voltage-ladder protocol to obtain information on SCRA effects on the channel’s voltage dependence of activation (V50) and maximal conductance (Gmax) (both determined from Boltzmann fits of the instantaneous tail currents; see Methods for details).
Stably expressing cell lines “CHO-hERG DUO” (here referred to as hERG; gene: KCNH2) and “CHO-KVLQT1/mink” (here referred to as KV7.1/KCNE1; gene: KCNQ1/KCNE1), (B’SYS GmBH, Witterswil, Switzerland) were used to study whole-cell K^+ currents on a QPatch II 48 APC system (Sophion Bioscience A/S, Ballerup, Denmark). Cell culture and passaging were performed in accordance with standard operating procedures. Cells were harvested in serum-free medium with Detachin^TM (Genlantis, CA, USA) immediately prior to experiments. For MPC on transient cell lines, CHO-K1 CCL-61 cells (ATCC, Manassas, VA, USA) were cultured in Ham’s F-12 medium supplemented with 10% fetal bovine serum (FBS) and 100 U/mL penicillin–100 µg/mL streptomycin (Gibco, Thermo Fisher Scientific, Waltham, MA, USA). Transfection was carried out using JetOPTIMUS® reagent (Polyplus, Strasbourg, France) according to the manufacturer’s protocol. Briefly, 80,000 cells were seeded per well in a 12-well plate and transfected with 300 ng of pcDNA3-GFP plasmid, 700 ng of pcDNA3-hERG plasmid with either the wild-type or mutant channels (S624A, S649A, or Y652A), and […] of JetOPTIMUS. After 8 h, cells were detached and reseeded at a density of 30,000 cells per well onto several poly-D-lysine-coated glass coverslips placed in a 12-well plate. For the CB1 receptor activity assay, the AequoScreen® recombinant Chinese hamster ovary (CHO) K1 cell line, stably expressing the human CB1 receptor (ES-110-A), was used (Revvity, Sollentuna, Sweden).
Automated patch-clamp recordings were performed at 22 °C. Freshly harvested cell suspensions (2–3 million cells/mL) were prepared for experiments by the QPatch II 48 automated cell preparation unit. Cells were centrifuged for 150 s at 150 × g and washed twice with the extracellular recording solution. Cells were handled by the integrated pipetting robot and added to the 48 experiment sites on the planar patch-clamp consumable QPlate. Each experiment site contained an individual pair of recording electrodes and a silicon/glass biochip embedded in the flow channels. Single-cell patch recordings (n = 1 is defined as one single-cell patch) and population patch recordings (up to 10 cells per well, n = 1 is defined as one population patch) were performed for hERG and for KV7.1/KCNE1, respectively. Cells were applied, positioned and sealed to the patch holes by a mild suction protocol; whole-cell access was then achieved by a stronger suction pulse.
The intracellular solution contained (in mM): 100 KCl, 4.3 CaCl2, 1.4 MgCl2, 25/10 KOH/EGTA, 24 KF, 10 HEPES, and 4 Mg-ATP (hERG) or 4 Na-ATP (KV7.1/KCNE1). […] The compounds were pre-diluted in DMSO, and the final concentration of DMSO (0.3%) was equal in all recording solutions to control for vehicle effects. The compounds made no contact with plastics following dilution in extracellular solution.
An overview of experimental conditions is provided in SI Table VII, Square voltage pulses in a voltage ladder protocol were used to study current/voltage (I(V)) relationships. Each voltage protocol was first run three times in the presence of vehicle (extracellular solution supplemented with 0.3% DMSO), the 3rd serving as the baseline. Voltage protocols were repeated in the presence of 4 cumulatively rising concentrations of test compound, followed by application of vehicle for recovery.

[2] = biological target: T1, human CB1 receptor (Homo sapiens, UniProt P21554); assay: AequoScreen intracellular calcium release assay, CHO-K1 cells stably expressing CB1; assay type: cell-based
T1 construct: host or cells: CHO-K1 stably expressing CB1, apoaequorin and Gα16

[3] = biological target: KV7.1/KCNE1 (Homo sapiens, UniProt P51787); assay: Automated patch-clamp (APC, population patch), CHO cells stably expressing human KV7.1/KCNE1; assay type: cell-based; details: for KV7.1/KCNE1 channel Efficacy (max reduction in Gmax) Gmin, marked *: * Greatest efficacy achieved with a concentration between 10 and 30 µM (no fit); for IC50 / KV7.1/KCNE1 channel Efficacy (max reduction in Gmax) Gmin: best fit; for IC50: read-out: KV7.1/KCNE1 channel Potency IC50 (Gmax reduction); for KV7.1/KCNE1 channel Efficacy (max reduction in Gmax) Gmin: 1 = no reduction of Gmax, 0 = complete reduction
Description: Both hERG and KV7.1/KCNE1 contribute to cardiomyocyte repolarization (Fig. 1g). Inhibition of KV7.1/KCNE1 alone can be proarrhythmic. Moreover, under conditions with impaired hERG function, upregulation of KV7.1/KCNE1 has been proposed to partially compensate for the loss of hERG [38, 39]. […] To assess if SCRAs also affect KV7.1/KCNE1, we used mammalian CHO cells stably expressing human KV7.1/KCNE1. […] At 10 µM, 7 of the SCRAs caused a significant positive shift in V50 (Fig. 5e), with the largest shift induced by MDMB-[…] (ΔV50 = +10.3 ± 1.6 mV).
Automated patch-clamp recordings were performed at 22 °C.
For the KV7.1/KCNE1 voltage ladder protocol (SI Table VII) the solutions were present for 60 s before recording started. KV7.1/KCNE1 cells were kept at a holding voltage of −90 mV, with brief hyperpolarizing steps to −100 mV for 540 ms (to calculate ohmic leakage). […] The time between compound application and the first voltage protocol was 60 s. Time between sweeps was 15 s. The voltage ladder protocol was executed every 220 s.
For Gmax (rel.), N was set to –1. For ΔV50, N was set to 1.

[4] = CB1 receptor Potency EC50, normalized to median EC50 of JWH-018, n ≥ 3 (JWH-030 n = 2)
[5] = normalized to maximum of JWH-018, n ≥ 3 (JWH-030 n = 2)
[6] = read-out: hERG channel Potency IC50 (Gmax reduction), APC, 22 °C, best fit
[7] = normalized to median EC50 of JWH-018, n ≥ 3 (JWH-030 n = 2), read-out: CB1 receptor Potency EC50
[8] = read-out: CB1 receptor Potency EC50

hERG (KV11.1), sequence (Q12809 whole entry): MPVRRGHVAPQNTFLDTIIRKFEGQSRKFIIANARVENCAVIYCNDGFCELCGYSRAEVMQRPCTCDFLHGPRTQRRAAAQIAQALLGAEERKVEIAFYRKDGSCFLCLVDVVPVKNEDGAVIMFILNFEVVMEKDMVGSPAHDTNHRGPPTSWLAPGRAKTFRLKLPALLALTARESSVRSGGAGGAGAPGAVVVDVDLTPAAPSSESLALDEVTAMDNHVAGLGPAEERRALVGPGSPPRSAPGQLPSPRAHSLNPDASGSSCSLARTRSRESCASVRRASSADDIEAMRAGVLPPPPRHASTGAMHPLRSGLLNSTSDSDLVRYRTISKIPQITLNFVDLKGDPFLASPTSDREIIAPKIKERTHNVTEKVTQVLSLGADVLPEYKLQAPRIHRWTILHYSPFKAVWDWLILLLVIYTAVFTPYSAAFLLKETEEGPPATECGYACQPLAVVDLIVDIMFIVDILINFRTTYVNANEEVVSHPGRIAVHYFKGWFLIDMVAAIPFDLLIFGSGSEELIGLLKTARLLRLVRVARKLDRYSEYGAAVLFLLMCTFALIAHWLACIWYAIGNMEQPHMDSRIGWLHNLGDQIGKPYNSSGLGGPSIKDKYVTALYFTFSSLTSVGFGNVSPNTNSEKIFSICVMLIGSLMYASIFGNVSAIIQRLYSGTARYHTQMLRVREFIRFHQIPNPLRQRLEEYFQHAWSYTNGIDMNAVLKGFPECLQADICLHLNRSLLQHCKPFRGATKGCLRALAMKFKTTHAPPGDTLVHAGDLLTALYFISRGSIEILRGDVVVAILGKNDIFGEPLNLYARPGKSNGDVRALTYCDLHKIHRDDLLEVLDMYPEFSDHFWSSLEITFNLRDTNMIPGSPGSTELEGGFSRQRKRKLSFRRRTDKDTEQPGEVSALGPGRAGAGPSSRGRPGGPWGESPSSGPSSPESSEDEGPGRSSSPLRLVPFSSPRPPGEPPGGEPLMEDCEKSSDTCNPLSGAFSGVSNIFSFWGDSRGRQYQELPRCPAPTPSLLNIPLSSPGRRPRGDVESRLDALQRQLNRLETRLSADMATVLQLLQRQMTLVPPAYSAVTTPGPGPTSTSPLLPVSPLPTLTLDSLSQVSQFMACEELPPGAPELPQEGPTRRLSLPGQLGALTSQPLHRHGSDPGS
KV7.1/KCNE1, sequence (P51787 whole entry): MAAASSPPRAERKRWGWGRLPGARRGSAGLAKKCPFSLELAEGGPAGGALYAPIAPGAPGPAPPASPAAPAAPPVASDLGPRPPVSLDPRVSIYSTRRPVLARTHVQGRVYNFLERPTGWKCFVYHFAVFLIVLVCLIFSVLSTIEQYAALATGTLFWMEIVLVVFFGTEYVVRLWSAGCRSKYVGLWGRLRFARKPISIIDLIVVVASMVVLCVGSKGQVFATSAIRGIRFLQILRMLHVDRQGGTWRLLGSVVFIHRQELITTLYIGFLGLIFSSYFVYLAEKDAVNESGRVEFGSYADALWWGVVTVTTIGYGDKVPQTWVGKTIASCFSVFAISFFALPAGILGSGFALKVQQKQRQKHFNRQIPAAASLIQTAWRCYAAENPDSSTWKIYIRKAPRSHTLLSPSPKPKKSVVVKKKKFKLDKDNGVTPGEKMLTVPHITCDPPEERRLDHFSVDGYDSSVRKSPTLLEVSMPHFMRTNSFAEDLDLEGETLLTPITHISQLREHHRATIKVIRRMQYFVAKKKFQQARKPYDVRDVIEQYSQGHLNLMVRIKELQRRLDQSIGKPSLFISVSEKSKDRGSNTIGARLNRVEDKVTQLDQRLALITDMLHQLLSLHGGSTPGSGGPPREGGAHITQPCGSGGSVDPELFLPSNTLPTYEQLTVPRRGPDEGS
T1 sequence (P21554 whole entry): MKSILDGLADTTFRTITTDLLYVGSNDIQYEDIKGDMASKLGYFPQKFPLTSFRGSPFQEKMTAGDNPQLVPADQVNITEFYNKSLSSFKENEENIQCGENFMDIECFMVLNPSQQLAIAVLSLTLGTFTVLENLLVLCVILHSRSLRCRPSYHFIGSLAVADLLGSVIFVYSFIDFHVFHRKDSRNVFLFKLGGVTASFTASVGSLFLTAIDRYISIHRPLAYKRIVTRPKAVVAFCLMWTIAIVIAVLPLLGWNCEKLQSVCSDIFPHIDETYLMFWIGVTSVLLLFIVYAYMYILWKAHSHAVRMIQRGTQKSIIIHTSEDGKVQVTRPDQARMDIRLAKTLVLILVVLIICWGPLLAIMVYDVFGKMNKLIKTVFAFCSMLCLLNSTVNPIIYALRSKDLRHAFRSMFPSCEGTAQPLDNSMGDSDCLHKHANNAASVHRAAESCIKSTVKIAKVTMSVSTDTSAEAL

Row | SMILES | hERG channel Efficacy (max reduction in Gmax) Gmin ([1]; best fit, APC, 22 °C) | CB1 receptor Efficacy Emax [2, 5] [% JWH-018] | KV7.1/KCNE1 channel Efficacy (max reduction in Gmax) Gmin, marked * [3] | IC50 [1, 6] [nM] | EC50 [2, 7] [nM] | KV7.1/KCNE1 channel Efficacy (max reduction in Gmax) Gmin [3] | also measured
1 | C=CCCCN1C(=O)/C(=N\NC(=O)c2ccccc2)c2ccccc21 [BZO-4en-POXIZID] | 0.64 | 112 | 0.79 |  |  |  | IC50 [1]: 3900 nM; effect on Gmax of hERG (in words) [1]: concentration-dependent inhibitory effects on Gmax; EC50 [2, 4]: 1700 nM
2 | CCCCCn1cc(C(=O)C2C(C)(C)C2(C)C)c2ccccc21 [UR-144] |  | 101 | 0.92 |  |  |  | hERG channel Efficacy (max reduction in Gmax) Gmin, marked * [1]: 0.94; effect on Gmax of hERG (in words) [1]: non-inhibitor; EC50 [2, 4]: 414 nM
3 | CC(C)(C)[C@H](NC(=O)c1nn(Cc2ccc(F)cc2)c2ccccc12)C(N)=O [ADB-FUBINACA] | 0.25 | 106 | 0.81 | 13700 | 4.97 |  | 
4 | CC(C)[C@H](NC(=O)c1cn(CC2CCCCC2)c2ccccc12)C(N)=O [AB-CHMICA] | 0.64 | 110 |  | 8200 | 20.1 | 0.46 | IC50 ([3]; APC): 16200 nM
5 | CCCCn1nc(C(=O)NC(C(=O)OC)C(C)(C)C)c2cc(Br)ccc21 (stereo not drawn) [MDMB-5'Br-BUTINACA] | 0.67 | 114 | 0.60 |  |  |  | IC50 [1]: 6200 nM; effect on KV7.1/KCNE1 (in words) ([3]; APC): both reduced Gmax and shifted V50 towards more positive voltages
6 | CCCCCCN1C(=O)C(=NNC(=O)c2ccccc2)c2ccccc21 [BZO-HEXOXIZID] |  | 84.3 |  |  | 5130 | 0.44 | hERG channel Efficacy (max reduction in Gmax) Gmin, marked ? ([1]; ? Unreliable values (fit failed QC, extrapolated)): 0.00; CB1 EC50 (in words) [2]: low micromolar; IC50 ([3]; APC): 3000 nM
7 | CC(C)(C)[C@H](NC(=O)c1n[nH]c2ccc(Br)cc12)C(N)=O [ADB-5'Br-INACA] | 0.70 | 111 | 1.04 | 24500 | 2290 |  | effect on Gmax of hERG (in words) [1]: no or limited effects
8 | CC(C)(C)[C@H](NC(=O)c1nn(CC2CCCCC2)c2ccccc12)C(N)=O | 0.13 |  | 0.93 | 11300 |  |  | CB1 receptor Efficacy Emax [2]: 107 % JWH-018; EC50 [2, 8]: 3.87 nM
9 | COC(=O)[C@@H](NC(=O)c1nn(Cc2ccc(F)cc2)c2ccccc12)C(C)(C)C [MDMB-FUBINACA] | 0.25 | 103 | 0.59 | 10200 | 0.795 |  | CB1 EC50 (in words) [2]: sub-nanomolar
10 | CCCCCn1cc(C(=O)c2ccc(CC)c3ccccc23)c2ccccc21 [JWH-210] |  | 110 |  |  | 10.1 | 0 | hERG channel Efficacy (max reduction in Gmax) Gmin, marked * [1]: 0.89
11 | CC(C)(C)C(NC(=O)c1cn(CC2CCCCC2)c2ccccc12)C(N)=O (stereo not drawn) [ADB-CHMICA] | 0.48 | 110 |  | 5200 | 15.7 | 0.4 | IC50 ([3]; APC): 13400 nM
12 | C=CCCCn1nc(C(=O)N[C@H](C(=O)OC)C(C)(C)C)c2ccccc21 [MDMB-4en-PINACA] | 0.27 | 109 | 0.57 | 14600 | 16.7 |  | 
13 | CC(C)[C@H](NC(=O)c1nn(CC2CCCCC2)c2ccccc12)C(N)=O | 0.00 |  | 0.72 | 51200 |  |  | CB1 receptor Efficacy Emax [2]: 108 % JWH-018; EC50 [2, 8]: 8.98 nM
14 | COC(=O)[C@@H](NC(=O)c1cn(CC2CCCCC2)c2ccccc12)C(C)C [MMB-CHMICA] | 0.75 | 109 |  | 2600 | 8.76 | 0.83 | 
15 | COC(=O)C(NC(=O)c1nn(CC2CCCCC2)c2ccccc12)C(C)(C)C (stereo not drawn) [MDMB-[…]] | 0.60 | 106 | 0.52 |  |  |  | IC50 [1]: 12400 nM; EC50 [2, 4]: 1.4 nM; ΔV50 of KV7.1/KCNE1 ([3]; 10 µM): +10.3 ± 1.6 mV

— publication PMC13586173, “Synthetic cannabinoid receptor agonists inhibit the cardiac voltage-gated potassium channel hERG” (Acta Pharmacologica Sinica, 2026)
